Key:
BI-2493 [1] = compound: T1, C[C@H]1CNCCN1c1nccc(-c2noc3c2CCC[C@@]32CCCc3sc(N)c(C#N)c32)n1 [BI-2493]; settings: 5 days
Experimental: (§1)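 PRISM pooled barcoded cancer cell line viability screen (Broad Institute) with BI-2493 at 8 doses in threefold dilutions from 0.00457 to 10 µmol/L, 5-day treatment; curves fitted per cell line. IC50 is undefined (placeholder) for resistant lines. AUC is capped at 1, and sensitivity is reported as 1 − AUC.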

BI-2493 [2] = compound: T1, BI-2493; assay: 1 - AUC of viability dose-response curve (sensitivity) (fraction); higher = more sensitive; settings: 5 days
Experimental: as §1

Test System	IC50 of cell viability (BI-2493 [1])	1 - AUC of viability dose-response curve (BI-2493 [2])
GP5D_LARGE_INTESTINE	> 10 µM	0.0606
GRANTA519_HAEMATOPOIETIC_AND_LYMPHOID_TISSUE	> 10 µM	0.0332
GSS_STOMACH	3.3 µM	0.19
H4_CENTRAL_NERVOUS_SYSTEM	5.48 µM	0.0861
H103_UPPER_AERODIGESTIVE_TRACT	7.57 µM	0.0476
H157_UPPER_AERODIGESTIVE_TRACT	8.84 µM	0.023
H376_UPPER_AERODIGESTIVE_TRACT	5.33 µM	0.243
H413_UPPER_AERODIGESTIVE_TRACT	> 10 µM	0.126
HA1E_KIDNEY	> 10 µM	0.223
HAC2_OVARY	6.07 µM	0.157
HCA1_CERVIX	4.58 µM	0.132
HCC15_LUNG	9.81 µM	0.0598
HCC33_LUNG	9.27 µM	0.161
HCC44_LUNG	1.66 µM	0.257
HCC56_LARGE_INTESTINE	2.37 µM	0.242
HCC78_LUNG	7.51 µM	0.164
HCC515_LUNG	5.55 µM	0.103
HCC827_LUNG	7.98 µM	0.0511
HCC1143_BREAST	9.86 µM	0.106
HCC1195_LUNG	9.21 µM	0.0206
HCC1359_LUNG	9.67 µM	0.00729
HCC1395_BREAST	5.13 µM	0.139
HCC1419_BREAST	7.93 µM	0.0762
HCC1428_BREAST	5.47 µM	0.106
HCC1438_LUNG	> 10 µM	< 0
HCC1806_BREAST	5.35 µM	0.0665
HCC1937_BREAST	> 10 µM	0.143
HCC1954_BREAST	5.1 µM	0.0754
HCC2108_LUNG	9.5 µM	0.0106
HCC4006_LUNG	> 10 µM	0.233
